Source: patent US12157741B2, “Macrocyclic inhibitors of DYRK1A” (DANA-FARBER CANCER INSTITUTE, INC., priority 2018, dated 2024)
Where two headings read alike, the source gives them in different places.

Key:
Format in all cases: binding
various enzymes [1] = target: various enzymes (Homo sapiens, UniProt O14965); settings: compound 1 uM
Protocol: (§1) Ambit profiling was conducted in accordance with the manufacturer's instructions.

various enzymes [2] = target: various enzymes (Homo sapiens, UniProt O15111); settings: compound 1 uM
Chain of various enzymes (Homo sapiens, UniProt O15111) (O15111 whole entry): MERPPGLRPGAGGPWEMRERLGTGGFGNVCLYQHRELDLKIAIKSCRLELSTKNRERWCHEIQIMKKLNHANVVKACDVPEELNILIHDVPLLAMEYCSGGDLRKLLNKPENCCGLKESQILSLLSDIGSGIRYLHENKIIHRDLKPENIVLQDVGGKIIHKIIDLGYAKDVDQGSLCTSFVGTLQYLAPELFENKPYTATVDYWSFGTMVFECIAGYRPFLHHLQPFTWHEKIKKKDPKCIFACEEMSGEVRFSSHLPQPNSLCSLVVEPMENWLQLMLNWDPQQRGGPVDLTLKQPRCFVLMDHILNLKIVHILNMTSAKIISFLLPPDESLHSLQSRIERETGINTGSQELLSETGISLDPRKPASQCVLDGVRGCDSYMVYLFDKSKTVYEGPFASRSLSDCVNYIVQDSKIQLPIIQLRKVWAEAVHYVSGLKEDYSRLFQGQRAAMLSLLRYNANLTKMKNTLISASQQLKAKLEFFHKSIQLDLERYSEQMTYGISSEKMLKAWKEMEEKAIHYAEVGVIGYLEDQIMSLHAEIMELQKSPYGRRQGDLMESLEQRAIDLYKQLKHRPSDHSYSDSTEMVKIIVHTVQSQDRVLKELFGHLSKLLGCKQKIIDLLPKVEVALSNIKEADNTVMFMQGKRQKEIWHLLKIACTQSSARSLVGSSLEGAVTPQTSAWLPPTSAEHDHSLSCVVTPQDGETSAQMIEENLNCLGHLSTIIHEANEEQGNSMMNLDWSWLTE
Protocol: as §1

various enzymes [3] = target: various enzymes (Homo sapiens, UniProt O43293); settings: compound 1 uM
Protocol: as §1

various enzymes [4] = target: various enzymes (Homo sapiens, UniProt O43353); settings: compound 1 uM
Chain of various enzymes (Homo sapiens, UniProt O43353) (O43353 whole entry): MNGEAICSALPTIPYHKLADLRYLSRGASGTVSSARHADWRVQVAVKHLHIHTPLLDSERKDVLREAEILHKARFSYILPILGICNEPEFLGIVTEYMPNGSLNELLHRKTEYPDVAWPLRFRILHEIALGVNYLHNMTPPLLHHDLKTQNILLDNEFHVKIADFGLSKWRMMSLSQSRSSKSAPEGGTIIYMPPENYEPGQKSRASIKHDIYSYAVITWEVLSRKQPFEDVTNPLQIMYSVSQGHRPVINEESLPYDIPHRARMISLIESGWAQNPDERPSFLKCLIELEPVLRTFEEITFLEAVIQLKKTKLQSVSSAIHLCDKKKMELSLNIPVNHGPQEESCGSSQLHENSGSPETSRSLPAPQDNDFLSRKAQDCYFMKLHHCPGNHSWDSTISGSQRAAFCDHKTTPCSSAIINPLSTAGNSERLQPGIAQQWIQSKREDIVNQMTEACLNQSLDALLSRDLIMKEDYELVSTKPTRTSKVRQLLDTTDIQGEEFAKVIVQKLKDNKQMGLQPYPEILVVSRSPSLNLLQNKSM
Protocol: as §1

various enzymes [5] = target: various enzymes (Homo sapiens, UniProt O60331); settings: compound 1 uM
Protocol: as §1

various enzymes [6] = target: various enzymes (Homo sapiens, UniProt O94804); settings: compound 1 uM
Protocol: as §1

various enzymes [7] = target: various enzymes (Homo sapiens, UniProt P00533, G719S)
Protocol: as §1

various enzymes [8] = target: various enzymes (Homo sapiens, UniProt P07947); settings: compound 1 uM
Protocol: as §1

various enzymes [9] = target: various enzymes (Homo sapiens, UniProt P07949, M918T)
Protocol: as §1

various enzymes [10] = target: various enzymes (Homo sapiens, UniProt P07949, V804L)
Protocol: as §1

various enzymes [11] = target: various enzymes (Homo sapiens, UniProt P08922); settings: compound 1 uM
Protocol: as §1

various enzymes [12] = target: various enzymes (Homo sapiens, UniProt P10721, D816V)
Protocol: as §1

various enzymes [13] = target: various enzymes (Homo sapiens, UniProt P10721, T670I/V559D)
Protocol: as §1

various enzymes [14] = target: various enzymes (Homo sapiens, UniProt P17612); settings: compound 1 uM
Protocol: as §1

various enzymes [15] = target: various enzymes (Homo sapiens, UniProt P21802); settings: compound 1 uM
Protocol: as §1

various enzymes [16] = target: various enzymes (Homo sapiens, UniProt P23443); settings: compound 1 uM
Protocol: as §1

various enzymes [17] = target: various enzymes (Homo sapiens, UniProt P27037); settings: compound 1 uM
Protocol: as §1

various enzymes [18] = target: various enzymes (Homo sapiens, UniProt P28482); settings: compound 1 uM
Protocol: as §1

various enzymes [19] = target: various enzymes (Homo sapiens, UniProt P31152); settings: compound 1 uM
Protocol: as §1

various enzymes [20] = target: various enzymes (Homo sapiens, UniProt P35590); settings: compound 1 uM
Protocol: as §1

various enzymes [21] = target: various enzymes (Homo sapiens, UniProt P42336, I800L)
Protocol: as §1

various enzymes [22] = target: various enzymes (Homo sapiens, UniProt P45984); settings: compound 1 uM
Protocol: as §1

various enzymes [23] = target: various enzymes (Homo sapiens, UniProt Q13131); settings: compound 1 uM
Protocol: as §1

various enzymes [24] = target: various enzymes (Homo sapiens, UniProt Q13555); settings: compound 1 uM
Protocol: as §1

various enzymes [25] = target: various enzymes (Homo sapiens, UniProt Q15349); settings: compound 1 uM
Chain of various enzymes (Homo sapiens, UniProt Q15349) (Q15349 whole entry): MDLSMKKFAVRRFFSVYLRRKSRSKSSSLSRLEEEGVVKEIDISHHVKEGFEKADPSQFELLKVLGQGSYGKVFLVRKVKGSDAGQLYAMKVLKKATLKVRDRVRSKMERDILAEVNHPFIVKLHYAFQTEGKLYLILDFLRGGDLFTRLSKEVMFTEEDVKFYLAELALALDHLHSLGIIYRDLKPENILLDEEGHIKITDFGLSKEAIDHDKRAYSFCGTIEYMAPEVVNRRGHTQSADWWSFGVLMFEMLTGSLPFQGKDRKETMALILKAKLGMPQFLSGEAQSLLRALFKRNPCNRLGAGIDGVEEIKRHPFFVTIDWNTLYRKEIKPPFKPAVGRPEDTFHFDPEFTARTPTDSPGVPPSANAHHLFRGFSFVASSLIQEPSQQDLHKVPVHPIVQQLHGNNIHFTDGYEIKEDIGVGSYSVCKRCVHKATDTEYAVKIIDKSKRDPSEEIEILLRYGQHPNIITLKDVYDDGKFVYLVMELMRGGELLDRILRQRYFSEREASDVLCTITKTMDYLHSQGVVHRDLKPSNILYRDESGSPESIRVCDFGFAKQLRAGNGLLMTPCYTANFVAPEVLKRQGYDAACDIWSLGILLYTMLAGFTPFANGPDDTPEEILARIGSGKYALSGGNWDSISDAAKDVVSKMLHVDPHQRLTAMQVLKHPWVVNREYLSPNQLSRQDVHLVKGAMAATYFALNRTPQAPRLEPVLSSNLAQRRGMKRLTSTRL
Protocol: as §1

various enzymes [26] = target: various enzymes (Homo sapiens, UniProt Q16584); settings: compound 1 uM
Protocol: as §1

various enzymes [27] = target: various enzymes (Homo sapiens, UniProt Q6DT37); settings: compound 1 uM
Protocol: as §1

various enzymes [28] = target: various enzymes (Homo sapiens, UniProt Q6ZN16); settings: compound 1 uM
Chain of various enzymes (Homo sapiens, UniProt Q6ZN16) (Q6ZN16 whole entry): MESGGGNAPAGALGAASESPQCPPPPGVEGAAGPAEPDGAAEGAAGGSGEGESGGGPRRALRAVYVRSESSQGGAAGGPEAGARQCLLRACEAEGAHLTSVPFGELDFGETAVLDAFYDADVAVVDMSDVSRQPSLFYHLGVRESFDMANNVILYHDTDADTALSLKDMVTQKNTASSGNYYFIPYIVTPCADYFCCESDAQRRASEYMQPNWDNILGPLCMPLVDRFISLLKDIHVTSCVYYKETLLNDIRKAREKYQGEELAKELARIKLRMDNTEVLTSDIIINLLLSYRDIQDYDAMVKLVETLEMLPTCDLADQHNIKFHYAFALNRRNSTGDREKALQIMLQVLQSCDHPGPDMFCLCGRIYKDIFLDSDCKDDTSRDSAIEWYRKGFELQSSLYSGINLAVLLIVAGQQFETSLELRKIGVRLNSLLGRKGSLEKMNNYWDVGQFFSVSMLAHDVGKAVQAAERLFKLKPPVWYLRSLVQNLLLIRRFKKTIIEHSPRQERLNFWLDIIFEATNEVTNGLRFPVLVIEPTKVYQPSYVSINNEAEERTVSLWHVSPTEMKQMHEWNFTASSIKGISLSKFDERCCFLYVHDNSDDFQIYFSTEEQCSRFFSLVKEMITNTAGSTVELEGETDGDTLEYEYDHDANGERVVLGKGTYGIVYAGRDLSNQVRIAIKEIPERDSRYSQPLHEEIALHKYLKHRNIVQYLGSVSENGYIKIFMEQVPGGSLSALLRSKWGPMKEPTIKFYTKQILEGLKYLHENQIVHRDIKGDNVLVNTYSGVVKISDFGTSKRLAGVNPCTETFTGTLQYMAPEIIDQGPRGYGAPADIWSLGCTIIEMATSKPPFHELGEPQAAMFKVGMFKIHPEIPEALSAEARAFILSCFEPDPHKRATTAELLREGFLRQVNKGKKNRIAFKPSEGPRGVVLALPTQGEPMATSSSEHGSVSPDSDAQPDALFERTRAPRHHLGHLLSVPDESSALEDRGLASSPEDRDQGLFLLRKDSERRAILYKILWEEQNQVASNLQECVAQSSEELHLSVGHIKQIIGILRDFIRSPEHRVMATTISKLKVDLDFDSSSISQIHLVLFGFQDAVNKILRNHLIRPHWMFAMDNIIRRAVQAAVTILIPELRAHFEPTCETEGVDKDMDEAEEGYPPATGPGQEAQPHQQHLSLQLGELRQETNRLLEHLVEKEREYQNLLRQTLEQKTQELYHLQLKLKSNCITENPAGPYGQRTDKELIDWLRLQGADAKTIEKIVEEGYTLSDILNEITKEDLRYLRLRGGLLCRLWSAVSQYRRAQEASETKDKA
Protocol: as §1

various enzymes [29] = target: various enzymes (Homo sapiens, UniProt Q7L7X3); settings: compound 1 uM
Chain of various enzymes (Homo sapiens, UniProt Q7L7X3) (Q7L7X3 whole entry): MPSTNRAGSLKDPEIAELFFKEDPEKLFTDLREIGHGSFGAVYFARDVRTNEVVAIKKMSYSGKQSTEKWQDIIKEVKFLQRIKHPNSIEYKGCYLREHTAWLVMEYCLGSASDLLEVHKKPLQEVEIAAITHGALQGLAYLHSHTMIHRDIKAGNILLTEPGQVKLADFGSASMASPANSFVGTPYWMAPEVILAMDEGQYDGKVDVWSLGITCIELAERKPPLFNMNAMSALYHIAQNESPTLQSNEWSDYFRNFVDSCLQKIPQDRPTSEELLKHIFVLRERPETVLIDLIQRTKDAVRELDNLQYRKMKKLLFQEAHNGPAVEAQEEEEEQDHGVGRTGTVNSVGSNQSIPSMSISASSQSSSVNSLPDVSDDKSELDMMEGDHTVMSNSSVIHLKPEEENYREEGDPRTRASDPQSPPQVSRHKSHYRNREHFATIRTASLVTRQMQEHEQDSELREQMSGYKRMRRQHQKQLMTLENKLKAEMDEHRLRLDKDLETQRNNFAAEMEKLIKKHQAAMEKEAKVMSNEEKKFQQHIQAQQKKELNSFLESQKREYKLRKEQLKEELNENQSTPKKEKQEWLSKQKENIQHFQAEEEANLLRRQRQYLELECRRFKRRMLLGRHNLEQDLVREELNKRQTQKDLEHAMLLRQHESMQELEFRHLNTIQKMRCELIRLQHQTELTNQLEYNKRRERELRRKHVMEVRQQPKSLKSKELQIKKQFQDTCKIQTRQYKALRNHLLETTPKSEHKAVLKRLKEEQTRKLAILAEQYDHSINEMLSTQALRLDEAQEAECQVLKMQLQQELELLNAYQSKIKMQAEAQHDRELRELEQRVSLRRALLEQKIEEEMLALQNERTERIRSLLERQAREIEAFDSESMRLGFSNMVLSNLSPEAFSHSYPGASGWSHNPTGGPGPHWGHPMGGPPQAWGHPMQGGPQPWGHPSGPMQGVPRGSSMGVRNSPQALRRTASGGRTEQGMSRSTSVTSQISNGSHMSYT
Protocol: as §1

various enzymes [30] = target: various enzymes (Homo sapiens, UniProt Q8N568); settings: compound 1 uM
Protocol: as §1

various enzymes [31] = target: various enzymes (Homo sapiens, UniProt Q8N752); settings: compound 1 uM
Chain of various enzymes (Homo sapiens, UniProt Q8N752) (Q8N752 whole entry): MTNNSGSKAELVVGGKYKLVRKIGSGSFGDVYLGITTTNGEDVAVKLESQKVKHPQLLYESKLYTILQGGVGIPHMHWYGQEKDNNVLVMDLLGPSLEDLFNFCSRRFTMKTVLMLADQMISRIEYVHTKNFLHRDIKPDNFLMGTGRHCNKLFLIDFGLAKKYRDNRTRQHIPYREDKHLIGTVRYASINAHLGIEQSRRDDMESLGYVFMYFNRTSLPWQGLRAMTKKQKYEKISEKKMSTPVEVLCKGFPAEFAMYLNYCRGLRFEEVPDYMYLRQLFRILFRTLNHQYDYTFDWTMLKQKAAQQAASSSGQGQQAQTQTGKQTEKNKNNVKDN
Protocol: as §1

various enzymes [32] = target: various enzymes (Homo sapiens, UniProt Q8NE63); settings: compound 1 uM
Protocol: as §1

various enzymes [33] = target: various enzymes (Homo sapiens, UniProt Q8WXR4); settings: compound 1 uM
Protocol: as §1

various enzymes [34] = target: various enzymes (Homo sapiens, UniProt Q92630); settings: compound 1 uM
Protocol: as §1

various enzymes [35] = target: various enzymes (Homo sapiens, UniProt Q96J92); settings: compound 1 uM
Protocol: as §1

various enzymes [36] = target: various enzymes (Homo sapiens, UniProt Q9H2G2); settings: compound 1 uM
Protocol: as §1

various enzymes [37] = target: various enzymes (Homo sapiens, UniProt Q9H422); settings: compound 1 uM
Protocol: as §1

various enzymes [38] = target: various enzymes (Homo sapiens, UniProt Q9HAZ1); settings: compound 1 uM
Protocol: as §1

various enzymes [39] = target: various enzymes (Homo sapiens, UniProt Q9HC98); settings: compound 1 uM
Protocol: as §1

various enzymes [40] = target: various enzymes (Homo sapiens, UniProt Q9UEW8); settings: compound 1 uM
Protocol: as §1

various enzymes [41] = target: various enzymes (Homo sapiens, UniProt Q9UQ88); settings: compound 1 uM
Protocol: as §1

various enzymes [42] = target: various enzymes (Homo sapiens, UniProt Q9Y2K2); settings: compound 1 uM
Protocol: as §1

various enzymes [43] = target: various enzymes (Homo sapiens, UniProt Q9Y5S2); settings: compound 1 uM
Protocol: as §1

various enzymes [44] = target: various enzymes (Plasmodium falciparum, UniProt P62344)
Protocol: as §1

Chain of various enzymes (Homo sapiens, UniProt O14965) (O14965 whole entry): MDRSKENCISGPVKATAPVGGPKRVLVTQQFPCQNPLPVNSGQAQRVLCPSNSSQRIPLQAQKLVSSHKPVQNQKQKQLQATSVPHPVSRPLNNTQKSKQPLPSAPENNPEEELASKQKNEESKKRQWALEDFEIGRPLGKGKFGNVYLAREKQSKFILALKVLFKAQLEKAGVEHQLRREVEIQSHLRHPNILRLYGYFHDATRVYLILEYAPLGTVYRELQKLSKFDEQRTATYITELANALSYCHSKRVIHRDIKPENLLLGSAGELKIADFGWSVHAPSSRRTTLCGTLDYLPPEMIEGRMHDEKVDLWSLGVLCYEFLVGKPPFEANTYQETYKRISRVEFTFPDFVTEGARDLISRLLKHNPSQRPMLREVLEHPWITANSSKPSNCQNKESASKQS

## COc1c2c(nn1C)CN(C(C)C)C(=O)CCCn1cc(c(C(F)(F)F)n1)-c1c[nH]c3ncc-2cc13 [Compound 50, (Z)-5-isopropyl-35-methoxy-31-methyl-13-(trifluoromethyl)-11H,21H,31H-5-aza-2(3,5)-pyrrolo[2,3-b]pyridina-1(4,1),3(4,3)-dipyrazolacyclononaphan-6-one]
Various enzymes [1]
  Ambit profiling: AURKA: 15
Various enzymes [2]
  Ambit profiling: IKK-alpha: 83
Various enzymes [3]
  Ambit profiling: DAPK3: 71
Various enzymes [4]
  Ambit profiling: RIPK2: 11
Various enzymes [5]
  Ambit profiling: PIP5K1C: 32
Various enzymes [6]
  Ambit profiling: LOK: 0.4
Various enzymes [7]
  Ambit profiling: EGFR(G719S): 41
Various enzymes [8]
  Ambit profiling: YES: 21
Various enzymes [9]
  Ambit profiling: RET(M918T): 0.25
Various enzymes [10]
  Ambit profiling: RET(V804L): 18
Various enzymes [11]
  Ambit profiling: ROS1: 5.1
Various enzymes [12]
  Ambit profiling: KIT(D816V): 0.35
Various enzymes [13]
  Ambit profiling: KIT(V559D, T670I): 10
Various enzymes [14]
  Ambit profiling: PKAC-alpha: 72
Various enzymes [15]
  Ambit profiling: FGFR2: 11
Various enzymes [16]
  Ambit profiling: S6K1: 8.6
Various enzymes [17]
  Ambit profiling: ACVR2A: 96
Various enzymes [18]
  Ambit profiling: ERK2: 87
Various enzymes [19]
  Ambit profiling: ERK4: 82
Various enzymes [20]
  Ambit profiling: TIE1: 9.2
Various enzymes [21]
  Ambit profiling: PIK3CA(I800L): 86
Various enzymes [22]
  Ambit profiling: JNK2: 7.5
Various enzymes [23]
  Ambit profiling: AMPK-alpha1: 90
Various enzymes [24]
  Ambit profiling: CAMK2G: 31
Various enzymes [25]
  Ambit profiling: RSK3(Kin.Dom.1-N-terminal): 4
  Ambit profiling: RSK3(Kin.Dom.2-C-terminal): 80
Various enzymes [26]
  Ambit profiling: MLK3: 11
Various enzymes [27]
  Ambit profiling: DMPK2: 47
Various enzymes [28]
  Ambit profiling: MAP3K15: 76
Various enzymes [29]
  Ambit profiling: TAOK1: 82
Various enzymes [30]
  Ambit profiling: DCAMKL2: 90
Various enzymes [31]
  Ambit profiling: CSNK1A1L: 67
Various enzymes [32]
  Ambit profiling: HIPK4: 1.5
Various enzymes [33]
  Ambit profiling: MYO3B: 9
Various enzymes [34]
  Ambit profiling: DYRK2: 56
Various enzymes [35]
  Ambit profiling: WNK4: 100
Various enzymes [36]
  Ambit profiling: SLK: 0.4
Various enzymes [37]
  Ambit profiling: HIPK3: 26
Various enzymes [38]
  Ambit profiling: CLK4: 17
Various enzymes [39]
  Ambit profiling: NEK6: 100
Various enzymes [40]
  Ambit profiling: STK39: 100
Various enzymes [41]
  Ambit profiling: CDC2L2: 89
Various enzymes [42]
  Ambit profiling: QSK: 73
Various enzymes [43]
  Ambit profiling: MRCKB: 99
Various enzymes [44]
  Ambit profiling: PFCDPK1(P. falciparum): 24

## CC(C)N1Cc2nn(C)cc2-c2cnc3[nH]cc(c3c2)-c2cn(nc2C(F)(F)F)CCCC1=O [Compound 45, (Z)-5-isopropyl-31-methyl-13-(trifluoromethyl)-11H,21H,31H-5-aza-2(3,5)-pyrrolo[2,3-b]pyridina-1(4,1),3(4,3)-dipyrazolacyclononaphan-6-one]
Various enzymes [1]
  Ambit profiling: AURKA: 0.6
Various enzymes [2]
  Ambit profiling: IKK-alpha: 100
Various enzymes [3]
  Ambit profiling: DAPK3: 99
Various enzymes [4]
  Ambit profiling: RIPK2: 12
Various enzymes [5]
  Ambit profiling: PIP5K1C: 5.8
Various enzymes [6]
  Ambit profiling: LOK: 4.7
Various enzymes [7]; compound 1 uM
  Ambit profiling: EGFR(G719S): 41
Various enzymes [8]
  Ambit profiling: YES: 56
Various enzymes [9]; compound 1 uM
  Ambit profiling: RET(M918T): 0.2
Various enzymes [10]; compound 1 uM
  Ambit profiling: RET(V804L): 10
Various enzymes [11]
  Ambit profiling: ROS1: 11
Various enzymes [12]; compound 1 uM
  Ambit profiling: KIT(D816V): 4.2
Various enzymes [13]; compound 1 uM
  Ambit profiling: KIT(V559D, T670I): 8.2
Various enzymes [14]
  Ambit profiling: PKAC-alpha: 51
Various enzymes [15]
  Ambit profiling: FGFR2: 9.5
Various enzymes [16]
  Ambit profiling: S6K1: 2.5
Various enzymes [17]
  Ambit profiling: ACVR2A: 100
Various enzymes [18]
  Ambit profiling: ERK2: 100
Various enzymes [19]
  Ambit profiling: ERK4: 100
Various enzymes [20]
  Ambit profiling: TIE1: 7.2
Various enzymes [21]; compound 1 uM
  Ambit profiling: PIK3CA(I800L): 87
Various enzymes [22]
  Ambit profiling: JNK2: 21
Various enzymes [23]
  Ambit profiling: AMPK-alpha1: 50
Various enzymes [24]
  Ambit profiling: CAMK2G: 24
Various enzymes [25]
  Ambit profiling: RSK3(Kin.Dom.1-N-terminal): 4.7
  Ambit profiling: RSK3(Kin.Dom.2-C-terminal): 96
Various enzymes [26]
  Ambit profiling: MLK3: 28
Various enzymes [27]
  Ambit profiling: DMPK2: 53
Various enzymes [28]
  Ambit profiling: MAP3K15: 84
Various enzymes [29]
  Ambit profiling: TAOK1: 8.8
Various enzymes [30]
  Ambit profiling: DCAMKL2: 100
Various enzymes [31]
  Ambit profiling: CSNK1A1L: 100
Various enzymes [32]
  Ambit profiling: HIPK4: 2.1
Various enzymes [33]
  Ambit profiling: MYO3B: 6.7
Various enzymes [34]
  Ambit profiling: DYRK2: 25
Various enzymes [35]
  Ambit profiling: WNK4: 97
Various enzymes [36]
  Ambit profiling: SLK: 2.8
Various enzymes [37]
  Ambit profiling: HIPK3: 15
Various enzymes [38]
  Ambit profiling: CLK4: 19
Various enzymes [39]
  Ambit profiling: NEK6: 98
Various enzymes [40]
  Ambit profiling: STK39: 98
Various enzymes [41]
  Ambit profiling: CDC2L2: 100
Various enzymes [42]
  Ambit profiling: QSK: 32
Various enzymes [43]
  Ambit profiling: MRCKB: 86
Various enzymes [44]; compound 1 uM
  Ambit profiling: PFCDPK1(P. falciparum): 2.8
